In patent US8895572B2, “Fused heterocyclic indane carboxamide CGRP receptor antagonists” (Merck Sharp & Dohme Corp., priority 2010, dated 2014):

Each compound was assayed against T1, recombinant human CL receptor/RAMP1 (Homo sapiens, UniProt O60894+Q16602) (assay: Recombinant receptor binding assay (125I-hCGRP)). Conditions: membranes of HEK 293 cells expressing human CL receptor/RAMP1, 10 pM 125I-hCGRP, 3 h at room temperature.
T1 construct: expressed in transfected cells; membranes used
Procedure: Human CL receptor (Genbank accession number L76380) was subcloned into the expression vector pIREShyg2 (BD Biosciences Clontech) as a 5′NheI and 3′ PmeI fragment. Human RAMP1 (Genbank accession number AJ001014) was subcloned into the expression vector pIRESpuro2 (BD Biosciences Clontech) as a 5′NheI and 3′NotI fragment. HEK 293 cells (human embryonic kidney cells; ATCC #CRL-1573) were cultured in DMEM with 4.5 g/L glucose, 1 mM sodium pyruvate and 2 mM glutamine supplemented with 10% fetal bovine serum (FBS), 100 units/mL penicillin and 100 μg/mL streptomycin, and maintained at 37° C. and 95% humidity. Cells were subcultured by treatment with 0.25% trypsin with 0.1% EDTA in HBSS. Stable cell line generation was accomplished by co-transfecting 10 μg of DNA with 30 μg Lipofectamine 2000 (Invitrogen) in 75 cm^2 flasks. CL receptor and RAMP1 expression constructs were co-transfected in equal amounts. Twenty-four hours after transfection the cells were diluted and selective medium (growth medium+300 μg/mL hygromycin and 1 μg/mL puromycin) was added the following day. A clonal cell line was generated by single cell deposition utilizing a FACS Vantage SE (Becton Dickinson). Growth medium was adjusted to 150 μg/mL hygromycin and 0.5 μg/mL puromycin for cell propagation.
Cells expressing recombinant human CL receptor/RAMP1 were washed with PBS and harvested in harvest buffer containing 50 mM HEPES, 1 mM EDTA and Complete™ protease inhibitors (Roche). The cell suspension was disrupted with a laboratory homogenizer and centrifuged at 48,000 g to isolate membranes. The pellets were resuspended in harvest buffer plus 250 mM sucrose and stored at […]. For binding assays, 20 μg of membranes were incubated in 1 mL binding buffer (10 mM HEPES, pH 7.4, 5 mM MgCl2, and 0.2% BSA) for 3 h at room temperature containing 10 pM ^125I-hCGRP (GE Healthcare) and antagonist. The assay was terminated by filtration through 96-well GFB glass fiber filter plates (PerkinElmer) that had been blocked with 0.05% polyethyleneimine. The filters were washed 3 times with ice-cold assay buffer (10 mM HEPES, pH 7.4, and 5 mM MgCl2). Scintillation fluid was added and the plates were counted on a Topcount (Packard). Non-specific binding was determined and the data analysis was carried out with the apparent dissociation constant (Ki) determined by using a non-linear least squares fitting the bound CPM data to the equation below:
[formula] Where Y is observed CPM bound, Ymax is total bound counts, Ymin is non specific bound counts, (Ymax−Ymin) is specific bound counts, % Imax is the maximum percent inhibition, % 1 min is the minimum percent inhibition, radiolabel is the probe, and the Kd is the apparent dissociation constant for the radioligand for the receptor as determined by hot saturation experiments.

T1 sequence (Q16602 23-461): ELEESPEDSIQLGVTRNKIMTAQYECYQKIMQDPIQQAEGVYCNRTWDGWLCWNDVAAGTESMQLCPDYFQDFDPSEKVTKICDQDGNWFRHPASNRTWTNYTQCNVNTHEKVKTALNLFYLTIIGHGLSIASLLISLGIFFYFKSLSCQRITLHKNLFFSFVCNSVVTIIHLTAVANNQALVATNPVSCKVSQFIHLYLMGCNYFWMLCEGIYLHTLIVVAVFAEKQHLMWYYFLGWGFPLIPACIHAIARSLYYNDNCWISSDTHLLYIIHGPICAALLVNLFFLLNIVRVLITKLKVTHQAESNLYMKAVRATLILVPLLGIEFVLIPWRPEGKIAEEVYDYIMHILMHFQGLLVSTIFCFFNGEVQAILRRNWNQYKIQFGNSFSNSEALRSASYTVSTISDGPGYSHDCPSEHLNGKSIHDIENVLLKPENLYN
T1 sequence (O60894 27-148): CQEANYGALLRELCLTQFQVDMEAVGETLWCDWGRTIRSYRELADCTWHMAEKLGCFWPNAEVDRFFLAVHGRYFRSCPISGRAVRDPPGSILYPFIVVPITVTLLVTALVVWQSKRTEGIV

SMILES | Ki [nM]
C[C@@H]1[C@H](c2ccccc2)C[C@H](NC(=O)c2ccc3c(c2)C[C@@]2(C3)C(=O)Nc3ncncc32)c2ncc(C(C)(C)O)n21 [Example 2.1, (2R)—N-[(5R,6S,8S)-3-(2-Hydroxypropan-2-yl)-5-methyl-6-phenyl-5,6,7,8-tetrahydroimidazo[1,2-a]pyridin-8-yl]-6′-oxo-1,3′,6′,7′-tetrahydrospiro[indene-2,5′-pyrrolo[2,3-d]pyrimidine]-5-carboxamide] | 0.19
O=C(N[C@H]1C[C@@H](c2cccc(F)c2F)Cn2c(CC(F)(F)F)nnc21)c1ccc2c(c1)C[C@@]1(C2)C(=O)Nc2ncccc21 [Example 1.14, (2R)—N-[(6S,8S)-6-(2,3-Difluorophenyl)-3-(2,2,2-trifluoroethyl)-5,6,7,8-tetrahydr[1,2,4]triazolo[4,3-a]pyridin-8-yl]-2′-oxo-1,1′,2′,3-tetrahydrospiro[indene-2,3′-pyrrolo[2,3-b]pyridine]-5-carboxamide] | 0.07
C[C@@H]1[C@H](c2ccccc2)C[C@H](NC(=O)c2ccc3c(c2)C[C@@]2(C3)C(=O)Nc3ncccc32)c2nnc(C3(C(F)(F)F)CC3)n21 [Example 1.19, (2R)—N-{(5R,6S,8S)-5-Methyl-6-phenyl-3-[1-(trifluoromethyl)cyclopropyl]-5,6,7,8-tetrahydro[1,2,4]triazolo[4,3-a]pyridin-8-yl}-2′-oxo-1,1′,2′,3-tetrahydrospiro[indene-2,3′-pyrrolo[2,3-b]pyridine]-5-carboxamide] | 0.39

Further lines, results first:

Ki [nM] | SMILES
0.27 | C[C@@H]1[C@H](c2ccccc2)C[C@H](NC(=O)c2ccc3c(c2)C[C@@]2(C3)C(=O)Nc3ncccc32)c2ncc(C(C)(C)O)n21 [Example 1.20, (2R)—N-[(5R,6S,8S)-3-(2-Hydroxypropan-2-yl)-5-methyl-6-phenyl-5,6,7,8-tetrahydroimidazo[1,2-a]pyridin-8-yl]-2′-oxo-1,1′,2′,3-tetrahydrospiro[indene-2,3′-pyrrolo[2,3-b]pyridine]-5-carboxamide]
0.07 | O=C(N[C@H]1C[C@@H](c2cccc(F)c2F)Cn2c(CC(F)(F)F)cnc21)c1ccc2c(c1)C[C@@]1(C2)C(=O)Nc2ncccc21 [Example 1.2, (2R)—N-[(6S,8S)-6-(2,3-Difluorophenyl)-3-(2,2,2-trifluoroethyl)-5,6,7,8-tetrahydroimidazo[1,2-a]pyridin-8-yl]-2′-oxo-1,1′,2′,3-tetrahydrospiro[indene-2,3′-pyrrolo[2,3-b]pyridine]-5-carboxamide]
0.03 | COC(C)(C)c1cnc2n1C[C@H](c1cccc(F)c1F)C[C@@H]2NC(=O)c1ccc2c(c1)C[C@@]1(C2)C(=O)Nc2ncccc21 [Example 1.8, (2R)—N-[(6S,8S)-6-(2,3-Difluorophenyl)-3-(2-methoxypropan-2-yl)-5,6,7,8-tetrahydroimidazo[1,2-a]pyridin-8-yl]-2′-oxo-1,1′,2′,3-tetrahydrospiro[indene-2,3′-pyrrolo[2,3-b]pyridine]-5-carboxamide]
